In test [1] the test system is MCF7. Nature of the test: Cytotoxicity against human MCF7 cells after 48 hrs by MTT assay. Format: functional, cell-based. Conditions: MCF7, 48 h.
For test [2], the system named is HeLa. Nature of the test: Cytotoxicity against human HeLa cells after 48 hrs by MTT assay. The class given is functional, cell-based.
Test [3] relates to HeLa. Nature of the test: Ratio of ellipticine IC50 to compound IC50 for human HeLa cells. Format: functional.

pIC50: −log10 of the molar value. Where only a bound is given, the exact number is not on record here.

For the molecule `Cc1ccc2[nH]c3c(c2c1)CC/C(=C\c1cc2c(ccc4ccccc42)nc1Cl)C3=O`, the pIC50 is less than 4.00 in test [1] and 4.45 in test [2].

Take `O=C1/C(=C/c2cc3c(ccc4ccccc43)nc2Cl)CCc2c1[nH]c1ccc(Cl)cc21`: the pIC50 in test [1] was 4.12; in test [2], 4.49.

Regarding `O=C1/C(=C/c2cc3c(ccc4ccccc43)nc2Cl)CCc2c1[nH]c1ccccc21`, the pIC50 in test [1] was less than 4.00; in test [2], 4.37.

Take `Cc1ccc2[nH]c3c(c2c1)CCc1c-3noc1-c1cc2c(ccc3ccccc32)nc1Cl`: the negative-log IC50 (pIC50) is 4.17 in test [1] and 4.58 in test [2].

Consider `Clc1ccc2[nH]c3c(c2c1)CCc1c-3noc1-c1cc2c(ccc3ccccc32)nc1Cl`, for which the negative-log IC50 (pIC50) in test [1] was 4.26; in test [2] it was 4.65.

`Clc1nc2ccc3ccccc3c2cc1-c1onc2c1CCc1c-2[nH]c2ccccc12`: the values for the negative logarithm of the IC50 (pIC50) in test [1] and in test [2] were 4.15 and 4.56, respectively.

On to `CCOc1nc2c(c(-c3cc4c(ccc5ccccc54)nc3Cl)c1C#N)CCc1c-2[nH]c2ccc(C)cc12`, for which the pIC50 in test [1] is 4.43; in test [2], 5.02.

On to `CCOc1nc2c(c(-c3cc4c(ccc5ccccc54)nc3Cl)c1C#N)CCc1c-2[nH]c2ccc(Cl)cc12`, for which the pIC50 in test [1] was 4.46; in test [2] it was 5.09. Also, the “Ratio IC50” value in test [3] was determined as 1.21.

Take `CCOc1nc2c(c(-c3cc4c(ccc5ccccc54)nc3Cl)c1C#N)CCc1c-2[nH]c2ccccc12`: the pIC50 was 4.33 in test [1] and 4.91 in test [2].

For the molecule `Cc1ccc2[nH]c3c(ccc4c(-c5cc6c(ccc7ccccc76)nc5Cl)nc(N)nc43)c2c1`, the pIC50 in test [1] is 4.40; in test [2], 4.83.

Turning to `Nc1nc(-c2cc3c(ccc4ccccc43)nc2Cl)c2ccc3c4cc(Cl)ccc4[nH]c3c2n1`, the pIC50 is 4.49 in test [1] and 4.91 in test [2].

Turning to `Nc1nc(-c2cc3c(ccc4ccccc43)nc2Cl)c2ccc3c4ccccc4[nH]c3c2n1`, the pIC50 in test [1] is 4.37; in test [2], 4.73.

With `Cc1c2ccncc2c(C)c2c1[nH]c1ccccc12` [ELLIPTECINE], the pIC50 in test [1] is 4.78; in test [2], 5.01.

As usually defined, the pIC50 is −log10 of the IC50, conventionally taken in molar units.

Values taken from ChEMBL document CHEMBL3132743, “Synthesis of hetero annulated carbazoles: exploration of in vitro cytotoxicity and molecular docking studies” (Medchemcomm, 2013).
